Assay results from paper PMC10198994 (Scientific Reports, 2023).
Structures can show the parent of a compound that is named as a salt. Where two headings read alike, the source gives them in different places. Marks after values point to notes of the source that are not given here.

Assays:
[1] = Total, sublimation and solvation enthalpies of HCQS in scCO2 from Chrastil, reformulated Chrastil and Bartle et al. model constants; format: physicochemical
Excerpt: In the year 1981, Josef Chrastil presented a model for the solubility of solids/liquids in SCF. The main basis of the model is a solvate complex formulation based on a simple reaction. According to Chrastil, solubility is explained by c2=c2(κ,ρ1,T) , where κ is association number, ρ1 is solvent density (scCO2) and T is temperature. Chrastil proposed Eq. (19)19 c2=ρ1κexpA1+B1/T
In the year 2009, Garlpati and Madras has reformulated Chrastil's model and it is expressed by Eq. (21), where solubility is explained by y2=y2κ^′,ρ1,T , in which κ^′ is association number, ρ1 is solvent density (scCO2) and T is temperature.21 y2=RTρ1/MScFf^∙^κ^′-1expA2+B2/T in Eq. (21), R denotes universal constant of ideal gas, MScF is molecular weight of solvent, f^∗ is reference pressure and A2 and B2 are the Reformulated model constants.
The solute sublimation enthalpy is calculated with Bartle et al., model and it is stated as23 lny2P/Pref=A4+B4/T+C4ρ1-ρref where A4 to C4 are the model constants. Using the constant B4 , sublimation enthalpy is calculated (i.e., ΔsubH=-B4R ).
Solid–liquid model requires enthalpy of fusion, molar volume and melting point of the solute. Enthalpy of fusion is estimated with the help Jain et al.[77], and molar volume of the solute is estimated with the help Immirzi and Perini method. The calculated molar enthalpy and molar volumes are 65,208 J mol^−1 and 3.306 × 10^–4 m^3 mol^−1, respectively. The melting temperature is obtained from the material safety data sheet as 240 °C. From Chrastil's model constant ( B1 ), total enthalpy is calculated ( B1 × R). From Bartle’s model constant ( B4 ), sublimation enthalpy is calculated ( ΔsubH=-B4R ). From the magnitude difference between total and sublimation enthalpies, solvation enthalpy is calculated. Similarly, from reformulated Chrastil's model constant ( B2 ) and Bartle’s model constant ( B4 ), combination solvation enthalpy is calculated. […] This may be due to a smaller number of parameters in the models; on the other hand, the correlating ability of the solvate complex models is quite good. […]

[2] = Static equilibrium solubility of HCQS in supercritical carbon dioxide (UV-vis spectrophotometer); format: physicochemical; conditions: for solubility thermodynamic at 1 h: thermodynamic from solid, read-out: Equilibrium solubility, S
Description: SCF-solubility of the drugs was experimentally measured via two broad classes of saturated solution-based methods, where solubility measurement can be done either (1) statically or (2) dynamically. […] The solubilities were measured with the help of an equilibrium cell. Thermodynamically, the method employed may be regarded as an isobaric-isothermal method. All the measurements are taken by keeping system temperatures and pressures at the desired value with high precision (i.e., ± 0.1 K and ± 0.1 MPa). Complete details about the equipment and measurement procedures are presented elsewhere[15]–[35]. However, the description of the equipment and the methodology employed in establishing solubility data are briefly presented in this section. The scCO2 is pumped to the equilibrium cell and drug sample and scCO2 are thoroughly mixed and allowed to attain equilibrium. […] To ensure equilibrium solubility, the experiments are performed with fresh samples at various time intervals. […] For each sampling a 600 µL volume saturated sample is collected via a collection valve in a deionized water preloaded sample vial. After discharging of each sample, the sampling valve was cleaned with 1 ml of deionized water. Drug sample solubility is estimated with the following formula:1 y2=ndrug/ndrug+nCO2 where y2 is solubility of the drug in scCO2, ndrug and nCO2 are number of moles of the drug and CO2 in the sampling loop, respectively.
The following formulas are used in data conversion2 ndrug=Cs·Vs/Ms 3 nCO2=V1ρ1/MCO2 where Cs is concentration of the drug in g/L. V1 = 600 × 10^–6 L and Vs = 5 × 10^–3 L are sampling loop and vial volumes, respectively. Ms and MCO2 are drug and CO2 molecular weights, respectively. ρ1 is density of scCO2 at each experimental condition, as presented in Table 2.
Solubility is also described as4 S=CSVs/V1
The solubility and mole fraction relation is described as5 S=ρMs/MCO2y2/1-y2

Enthalpy of sublimation ΔHsub ([1]; Bartle et al., model constant B4): ~89.1^c (approximate value) kJ/mol
Total Enthalpy, ΔHtotal ([1]; Chrastil's model constant B1): 69.80^a kJ/mol
Total Enthalpy, ΔHtotal ([1]; Modified Chrastil's model constant B2): 62.00^b kJ/mol
rise in solubility when temperature is raised from 308 to 338 K ([2]; 12 MPa): 4.6 folds
rise in solubility when temperature is raised from 308 to 338 K ([2]; 27 MPa): 3.8 folds
solubility thermodynamic at 1 h ([2]; supercritical carbon dioxide (scCO2) in an equilibrium cell, scCO2, 308 K, 210 bar): 93.9 µg/mL
solubility thermodynamic at 1 h ([2]; supercritical carbon dioxide (scCO2) in an equilibrium cell, scCO2, 308 K, 270 bar): 132 µg/mL
solubility thermodynamic at 1 h ([2]; supercritical carbon dioxide (scCO2) in an equilibrium cell, scCO2, 318 K, 120 bar): 40.9 µg/mL
solubility thermodynamic at 1 h ([2]; scCO2, 308 K, 150 bar): 35 µg/mL
solubility thermodynamic at 1 h ([2]; scCO2, 308 K, 180 bar): 49.7 µg/mL
solubility thermodynamic at 1 h ([2]; scCO2, 318 K, 150 bar): 80.6 µg/mL
solubility thermodynamic at 1 h ([2]; scCO2, 318 K, 210 bar): 165 µg/mL
solubility thermodynamic at 1 h ([2]; scCO2, 318 K, 240 bar): 210 µg/mL
solubility thermodynamic at 1 h ([2]; scCO2, 328 K, 120 bar): 49.4 µg/mL
solubility thermodynamic at 1 h ([2]; scCO2, 328 K, 150 bar): 103 µg/mL
solubility thermodynamic at 1 h ([2]; scCO2, 328 K, 210 bar): 207 µg/mL
solubility thermodynamic at 1 h ([2]; scCO2, 328 K, 270 bar): 356 µg/mL
solubility thermodynamic at 1 h ([2]; scCO2, 338 K, 120 bar): 53.4 µg/mL
solubility thermodynamic at 1 h ([2]; scCO2, 338 K, 150 bar): 126 µg/mL
solubility thermodynamic at 1 h ([2]; scCO2, 338 K, 180 bar): 182 µg/mL
solubility thermodynamic at 1 h ([2]; scCO2, 338 K, 210 bar): 231 µg/mL
solubility thermodynamic at 1 h ([2]; scCO2, 338 K, 240 bar): 291 µg/mL
solubility thermodynamic at 1 h ([2]; scCO2, 338 K, 270 bar): 426 µg/mL
Compound: CCN(CCO)CCCC(C)Nc1ccnc2cc(Cl)ccc12 (centres unmarked) [HCQS, Hydroxychloroquine sulfate]
